According to patent publication EP3272768A1, “CHIMERIC PEPTIDES USEFUL IN MALARIA PROPHYLAXIS OR TREATMENT” (priority 2016, dated 2018):
Peptide text beside a SMILES is read from it.

System: primary human hepatocytes
Assay type: cell-based
Procedure: A) Overlapping dodecapeptides with two amino acid shift covering the whole […] PfLRR1 protein were bound to a solid support. The membrane was incubated sequentially with PP1 protein, and anti- PP1 antibody, followed by a peroxidase-labeled secondary antibody. […] PfLRR1.1 and PfLRR1.2 are shown. B) PP1 sequence alignment between human and P. falciparum species (SEQ ID NO:16 and 15). • Figures 2A and 2B show in vitro cell viability assay. Primary hepatocytes were treated with or without various concentrations of […] or […] peptides. Absorbance was recorded 72h after. […] The assay was done using parasitemia of 0.5% and hematocrit of 1%. The peptides were added at various concentrations and incubated for 48h and then, fixed. Samples were analyzed by flow cytometry. Results are expressed as percentage of growth inhibition. • Figures 4A and 4B show in vitro effect of chimeric peptides PfLRR1.1 (peptide 1) and PfLRR1.2 (peptide 2) on the hepatic stage of the P. falciparum. […] The culture was fixed with paraformaldehyde (PFA) and analysed by fluorescence microscopy. • Figures 5A and 5B show in vitro effect of peptides PfLRR1.1 and PfLRR1.2 on the hepatic stage of the P. vivax. […] The culture was fixed with PFA and analysed by fluorescence microscopy.
The cell viability was determined using a colorimetric assay based on 3-(4,5-dimethylthiazol- 2-yl)-2,5 diphenyltetrazolium bromide (MTT). […]

| Structure (SMILES) | toxicity for the host cell (primary human hepatocyte) |
| --- | --- |
| CC[C@H](C)[C@H](NC(=O)[C@H](CCCCN)NC(=O)[C@H](CCCCN)NC(=O)[C@H](CCCCN)NC(=O)[C@H](CCCCN)NC(=O)[C@@H](N)C(C)C)C(=O)N[C@@H](CCCCN)C(=O)N[C@@H](C)C(=O)N[C@@H](CCC(=O)O)C(=O)N[C@H](C(=O)N[C@@H](CCCCN)C(=O)N[C@H](C(=O)N[C@H](C(=O)N[C@@H](CCC(=O)O)C(=O)N[C@@H](CC(N)=O)C(=O)N[C@@H](CC(C)C)C(=O)N[C@@H](CCC(N)=O)C(=O)N[C@@H](CC(N)=O)C(=O)N[C@@H](CS)C(=O)N[C@@H](CCCCN)C(=O)N[C@@H](CCCCN)C(=O)N[C@@H](CC(C)C)C(=O)N[C@@H](CCCNC(=N)N)C(=O)N[C@@H](CC(C)C)C(=O)N[C@@H](CC(C)C)C(=O)N[C@@H](CCC(=O)O)C(=O)N[C@@H](CC(C)C)C(=O)NCC(=O)N[C@@H](Cc1ccc(O)cc1)C(=O)N[C@@H](CC(N)=O)C(=O)N[C@@H](CCCCN)C(=O)N[C@H](C(=O)N[C@@H](CCCNC(=N)N)C(=O)N[C@@H](CCSC)C(=O)O)[C@@H](C)CC)[C@@H](C)CC)[C@@H](C)CC)[C@@H](C)CC [PfLRR1.2] (H-VKKKKIKAEIKIIENLQNCKKLRLLELGYNKIRM-OH) | not toxic |
| CC[C@H](C)[C@H](NC(=O)[C@H](CCCCN)NC(=O)[C@H](CCCCN)NC(=O)[C@H](CCCCN)NC(=O)[C@H](CCCCN)NC(=O)[C@@H](N)C(C)C)C(=O)N[C@@H](CCCCN)C(=O)N[C@@H](C)C(=O)N[C@@H](CCC(=O)O)C(=O)N[C@H](C(=O)N[C@@H](CCCCN)C(=O)N[C@H](C(=O)N[C@@H](CCC(=O)O)C(=O)N[C@@H](CC(N)=O)C(=O)N[C@@H](Cc1ccc(O)cc1)C(=O)N[C@@H](CCCNC(=N)N)C(=O)N[C@@H](CCCCN)C(=O)N[C@H](C(=O)N[C@H](C(=O)N[C@H](C(=O)N[C@@H](Cc1c[nH]cn1)C(=O)N[C@H](C(=O)N[C@@H](CC(C)C)C(=O)N1CCC[C@H]1C(=O)N[C@@H](CCC(N)=O)C(=O)N[C@@H](CC(C)C)C(=O)N[C@@H](CCCCN)C(=O)N[C@@H](CCC(N)=O)C(=O)N[C@@H](CC(C)C)C(=O)N[C@@H](CC(=O)O)C(=O)N[C@@H](C)C(=O)N[C@@H](CC(C)C)C(=O)O)[C@@H](C)CC)[C@@H](C)CC)[C@@H](C)CC)[C@@H](C)O)[C@@H](C)CC)[C@@H](C)CC [PfLRR1.1] (H-VKKKKIKAEIKIENYRKTIIHILPQLKQLDAL-OH) | not toxic |
